Experimental data reported in patent US5254563A, “Beta-carbolines, process for their production and their use in pharmaceutical agents” (Schering Aktiengesellschaft, priority 1989, dated 1993).

Key:
benzodiazepine receptors = assay: Inhibition of the H^3-BD binding in vivo (displacement of radioactively-labeled flunitrazepam); details: mice, i.p.; 3H-flunitrazepam i.v. after 15 minutes, forebrains removed after another 20 minutes; dose reducing specific binding to 50% of control
[1] = Metabolic stability in human liver homogenate; assay type: in vitro ADME; details: 2 hours at 37° C., HPLC/fluorimetry, read-out: Metabolic Stability (substance remaining)
Method: The metabolic stability is determined by a homogenate of hepatic tissue in physiological common salt solution being incubated with the test substance for 0 or 2 hours at 37° C. Then, the incubation batch is extracted and the content of test substance in the extract is determined by HPLC/fluorimetry. The substance remaining after 2 hours in comparison with 0 hours is expressed in percent stability.

SMILES | Inhibition of the H^3 -BD binding In vivo ED50 (benzodiazepine receptors) | remaining at 2 h [1]
COCc1c(C(=O)Oc2ccccc2)ncc2[nH]c3ccc(OCc4ccccc4)cc3c12 [B, 6benzyloxy-4-methoxymethyl-beta-carboline-3-carboxylic acid phenyl ester, reference compound] | greater than 90 mg/kg | 
COCc1c(C(=O)c2ccccc2)ncc2[nH]c3ccc(OCc4ccccc4)cc3c12 [A, 6-Benzyloxy-4-methoxymethyl-3-benzoyl-beta-carboline] | 5.0 mg/kg | 72%
